Laboratory results: PubChem BioAssay AID248 (DTP/NCI, 2004)
Several values for one entry are separate records, joined by “and”; a condition that tells them apart may be missing. Identical values can stand only once. Toxic doses and inconclusive results are not listed.

Tested on: L1210 leukemia ip in BDF1 mice, survival T/C
Assay: NCI In Vivo Anticancer Drug Screen. Data for tumor model L1210 Leukemia (intraperitoneal) in B6D2F1 (BDF1) mice
Settings: endpoint: mean survival time, higher = longer survival
In short: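 Value reflects the ratio of survival in compound-treated mice to survival in vehicle-treated controls, with both groups carrying the same transplanted tumor.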

[1] = dose: 100.0 mg/kg/injection, schedule: Q04DX003 (ip), vehicle: Klucel (hydroxypropylcellulose) (HPC)
[2] = dose: 200.0 mg/kg/injection, schedule: Q04DX003 (ip), vehicle: Klucel (hydroxypropylcellulose) (HPC)
[3] = dose: 400.0 mg/kg/injection, schedule: Q04DX003 (ip), vehicle: Klucel (hydroxypropylcellulose) (HPC)
[4] = dose: 100.0 mg/kg/injection, schedule: Q01DX001 (ip), vehicle: saline
[5] = dose: 200.0 mg/kg/injection, schedule: Q01DX001 (ip), vehicle: saline
[6] = dose: 400.0 mg/kg/injection, schedule: Q01DX001 (ip), vehicle: saline
[7] = dose: 100.0 mg/kg/injection, schedule: Q01DX001 (ip), vehicle: carboxymethylcellulose (CMC)
[8] = dose: 200.0 mg/kg/injection, schedule: Q01DX001 (ip), vehicle: carboxymethylcellulose (CMC)
[9] = dose: 400.0 mg/kg/injection, schedule: Q01DX001 (ip), vehicle: carboxymethylcellulose (CMC)
[10] = dose: 100.0 mg/kg/injection, schedule: Q04DX003 (ip), vehicle: saline
[11] = dose: 100.0 mg/kg/injection, schedule: Q01DX009 (ip), vehicle: saline
[12] = dose: 100.0 mg/kg/injection, schedule: Q04DX002 (ip), vehicle: saline
[13] = dose: 200.0 mg/kg/injection, schedule: Q01DX009 (ip), vehicle: saline
[14] = dose: 200.0 mg/kg/injection, schedule: Q04DX002 (ip), vehicle: saline
[15] = dose: 400.0 mg/kg/injection, schedule: Q04DX002 (ip), vehicle: saline
[16] = dose: 400.0 mg/kg/injection, schedule: Q01DX009 (ip), vehicle: saline

SMILES: Nc1ncc(-c2ccc(CNc3ccc(C(=O)NC(CC(=O)O)CC(=O)O)cc3)cc2)c(N)n1
- T/C (dose: 10.5 mg/kg/injection, schedule: Q01DX009 (ip), vehicle: saline): 122 % of control
- T/C (dose: 12.5 mg/kg/injection, schedule: Q01DX009 (ip), vehicle: saline): 114 % of control
- T/C (dose: 14.5 mg/kg/injection, schedule: Q01DX009 (ip), vehicle: saline): 116 % of control
- T/C (dose: 18.0 mg/kg/injection, schedule: Q01DX009 (ip), vehicle: saline): 114 % of control
- T/C (dose: 22.0 mg/kg/injection, schedule: Q01DX009 (ip), vehicle: saline): 116 % of control
- T/C (dose: 50.0 mg/kg/injection, schedule: Q01DX009 (ip), vehicle: saline): 165 % of control and 185 % of control
- T/C (dose: 66.0 mg/kg/injection, schedule: Q01DX001 (ip), vehicle: saline): 122 % of control
- T/C (dose: 75.0 mg/kg/injection, schedule: Q01DX001 (ip), vehicle: saline): 112 % of control and 119 % of control
- T/C (dose: 75.0 mg/kg/injection, schedule: Q01DX009 (ip), vehicle: saline): 107 % of control
- T/C (dose: 150.0 mg/kg/injection, schedule: Q01DX001 (ip), vehicle: saline): 115 % of control

SMILES: Cc1ccccc1OS(=O)(=O)c1ccccc1[N+](=O)[O-]
- T/C (dose: 100.0 mg/kg/injection, schedule: Q01DX009 (ip), vehicle: saline with Tween-80): 103 % of control
- T/C [1]: 95 % of control
- T/C (dose: 200.0 mg/kg/injection, schedule: Q01DX009 (ip), vehicle: saline with Tween-80): 90 % of control
- T/C [2]: 104 % of control
- T/C (dose: 400.0 mg/kg/injection, schedule: Q01DX009 (ip), vehicle: saline with Tween-80): 108 % of control
- T/C [3]: 90 % of control

SMILES: CC1(C)CCCC2(C)C3=C(CC4(C(C)(C)O)OC4C3=O)C(=O)CC12 (stereo not given)
- T/C [4]: 102 % of control
- T/C [5]: 105 % of control
- T/C [6]: 109 % of control

SMILES: CC1C=CCC(C)(C)C1 (stereo not given)
- T/C [7]: 95 % of control
- T/C [8]: 100 % of control
- T/C (dose: 200.0 mg/kg/injection, schedule: Q01DX009 (ip), vehicle: carboxymethylcellulose (CMC)): 94 % of control
- T/C [9]: 114 % of control
- T/C (dose: 400.0 mg/kg/injection, schedule: Q01DX009 (ip), vehicle: carboxymethylcellulose (CMC)): 90 % of control
- T/C (dose: 600.0 mg/kg/injection, schedule: Q01DX009 (ip), vehicle: carboxymethylcellulose (CMC)): 92 % of control

SMILES: CN(C)CCC(O)Cc1ccccc1 (stereo not given)
- T/C (dose: 100.0 mg/kg/injection, schedule: Q01DX009 (ip), vehicle: acetone): 95 % of control
- T/C (dose: 200.0 mg/kg/injection, schedule: Q01DX009 (ip), vehicle: acetone): 101 % of control

SMILES: COc1cc2c(cc1OC)C1(NCC2)C(=O)c2ccccc2C1=O
- T/C (dose: 100.0 mg/kg/injection, schedule: Q01DX001 (ip), vehicle: Klucel (hydroxypropylcellulose) (HPC)): 100 % of control
- T/C (dose: 200.0 mg/kg/injection, schedule: Q01DX001 (ip), vehicle: Klucel (hydroxypropylcellulose) (HPC)): 106 % of control
- T/C (dose: 400.0 mg/kg/injection, schedule: Q01DX001 (ip), vehicle: Klucel (hydroxypropylcellulose) (HPC)): 117 % of control

SMILES: CN1CCC(OC(=O)C2CC(=O)N(C)C(=O)C2)CC1
- T/C (dose: 25.0 mg/kg/injection, schedule: Q04DX003 (ip), vehicle: saline): 98 % of control
- T/C (dose: 50.0 mg/kg/injection, schedule: Q04DX003 (ip), vehicle: saline): 98 % of control
- T/C [10]: 100 % of control

SMILES: CCCCCCCCCCCC(CCCCCCCC)CCCCCCCC
- T/C [10]: 94 % of control
- T/C (dose: 200.0 mg/kg/injection, schedule: Q04DX003 (ip), vehicle: saline): 93 % of control
- T/C (dose: 400.0 mg/kg/injection, schedule: Q04DX003 (ip), vehicle: saline): 100 % of control

SMILES: CNc1nc(Cl)cc2c1ncn2C1OC(CO)C(O)C1O (stereo not given)
- T/C (dose: 100.0 mg/kg/injection, schedule: Q01DX005 (ip), vehicle: saline): 100 % of control
- T/C (dose: 200.0 mg/kg/injection, schedule: Q01DX005 (ip), vehicle: saline): 100 % of control

SMILES: COc1ccccc1C(=S)N1CCOCC1
- T/C [1]: 91 % of control
- T/C [2]: 96 % of control
- T/C [3]: 99 % of control

SMILES: COc1cc(N(CCCl)CCCl)ccc1C=Nc1cccc(Cl)c1
- T/C (dose: 50.0 mg/kg/injection, schedule: Q01DX001 (ip), vehicle: carboxymethylcellulose (CMC)): 114 % of control
- T/C [7]: 111 % of control
- T/C [8]: 100 % of control
- T/C [9]: 100 % of control

SMILES: CC(C)NC(=O)Oc1cccc(NC(=O)C(C)C)c1
- T/C (dose: 25.0 mg/kg/injection, schedule: Q04DX003 (ip), vehicle: saline with Tween-80): 101 % of control
- T/C (dose: 50.0 mg/kg/injection, schedule: Q04DX003 (ip), vehicle: saline with Tween-80): 92 % of control
- T/C (dose: 100.0 mg/kg/injection, schedule: Q04DX003 (ip), vehicle: saline with Tween-80): 92 % of control and 95 % of control
- T/C (dose: 400.0 mg/kg/injection, schedule: Q04DX003 (ip), vehicle: saline with Tween-80): 89 % of control

SMILES: CCOC(=O)c1c(N)sc2c1CCC2
- T/C (dose: 100.0 mg/kg/injection, schedule: Q01DX001 (ip), vehicle: saline with Tween-80): 110 % of control
- T/C [11]: 102 % of control
- T/C [12]: 93 % of control
- T/C (dose: 200.0 mg/kg/injection, schedule: Q01DX001 (ip), vehicle: saline with Tween-80): 103 % of control
- T/C [13]: 107 % of control
- T/C [14]: 96 % of control
- T/C (dose: 400.0 mg/kg/injection, schedule: Q01DX001 (ip), vehicle: saline with Tween-80): 98 % of control
- T/C [15]: 89 % of control

SMILES: O=[N+]([O-])c1cccc(/C=C/CCOc2ccccc2)c1
- T/C (dose: 100.0 mg/kg/injection, schedule: Q01DX009 (sc), vehicle: olive oil, sesame oil, peanut oil): 97 % of control
- T/C (dose: 100.0 mg/kg/injection, schedule: Q04DX003 (sc), vehicle: olive oil, sesame oil, peanut oil): 101 % of control
- T/C (dose: 200.0 mg/kg/injection, schedule: Q01DX009 (sc), vehicle: olive oil, sesame oil, peanut oil): 114 % of control
- T/C (dose: 200.0 mg/kg/injection, schedule: Q04DX003 (sc), vehicle: olive oil, sesame oil, peanut oil): 100 % of control
- T/C (dose: 400.0 mg/kg/injection, schedule: Q01DX009 (sc), vehicle: olive oil, sesame oil, peanut oil): 109 % of control
- T/C (dose: 400.0 mg/kg/injection, schedule: Q04DX003 (sc), vehicle: olive oil, sesame oil, peanut oil): 103 % of control

SMILES: Cc1cc(CS)c(CS)cc1C
- T/C (dose: 100.0 mg/kg/injection, schedule: Q01DX009 (ip), vehicle: Klucel (hydroxypropylcellulose) (HPC)): 100 % of control
- T/C [1]: 96 % of control
- T/C (dose: 200.0 mg/kg/injection, schedule: Q01DX009 (ip), vehicle: Klucel (hydroxypropylcellulose) (HPC)): 103 % of control
- T/C [2]: 93 % of control
- T/C (dose: 400.0 mg/kg/injection, schedule: Q01DX009 (ip), vehicle: Klucel (hydroxypropylcellulose) (HPC)): 102 % of control
- T/C [3]: 94 % of control

SMILES: CCC(/C=N/NC(N)=O)CC
- T/C [1]: 101 % of control
- T/C [2]: 93 % of control
- T/C [3]: 96 % of control

SMILES: CC(=O)CC(=O)Nc1ccc(C)c(C)c1
- T/C [11]: 102 % of control
- T/C [13]: 102 % of control
- T/C [16]: 93 % of control

SMILES: O=C(/C=C\c1ccc([N+](=O)[O-])cc1)OCCCCOC(=O)/C=C/c1ccc([N+](=O)[O-])cc1
- T/C (dose: 50.0 mg/kg/injection, schedule: Q01DX001 (ip), vehicle: saline): 93 % of control
- T/C [4]: 96 % of control
- T/C [5]: 90 % of control
- T/C [6]: 87 % of control

SMILES: NCC1OC(OC2C(N)CC(N)C(O)C2O)C(NC(=O)c2ccccc2)C(O)C1O (stereo not given)
- T/C [1]: 91 % of control
- T/C [2]: 96 % of control
- T/C [3]: 91 % of control

SMILES: Cc1ccc(C(C)C)cc1OCO
- T/C (dose: 20.0 mg/kg/injection, schedule: Q01DX Z (ip), vehicle: methylcellulose (MC)): 98 % of control
- T/C (dose: 30.0 mg/kg/injection, schedule: Q01DX Z (ip), vehicle: methylcellulose (MC)): 105 % of control

SMILES: CC1COC(C(F)(F)Cl)(C(F)(F)Cl)O1 (stereo not given)
- T/C [11]: 93 % of control and 97 % of control
- T/C [12]: 96 % of control and 101 % of control
- T/C [13]: 94 % of control and 92 % of control
- T/C [14]: 96 % of control and 103 % of control
- T/C [16]: 93 % of control and 105 % of control
- T/C [15]: 100 % of control and 105 % of control
